Assay results taken from PubChem BioAssay AID330 (DTP/NCI, 2004).
“And” between values parts separate entries of the source, which are not always exact repeats. Identical values can stand only once. Inconclusive results and toxic doses are left out. The calls were made as follows: active = survival T/C of 150% or more; inactive = T/C below 125% in these data.

Tested on: P388 leukemia ip, CD2F1 mice, survival T/C
Experiment: NCI In Vivo Anticancer Drug Screen. Data for tumor model P388 Leukemia (intraperitoneal) in CD2F1 (CDF1) mice
Settings: endpoint: median survival time, higher = longer survival
Summary of the method: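 Mice carrying the transplanted tumor received test compound or vehicle. Survival was recorded in each group, and the value is the treated-group measurement divided by that of the vehicle-treated control group.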

[1] = dose: 100.0 mg/kg/injection, schedule: Q04DX003 (ip), vehicle: saline with Tween-80
[2] = dose: 200.0 mg/kg/injection, schedule: Q04DX003 (ip), vehicle: saline with Tween-80
[3] = dose: 50.0 mg/kg/injection, schedule: Q01DX005 (ip), vehicle: saline with Tween-80
[4] = dose: 100.0 mg/kg/injection, schedule: Q01DX005 (ip), vehicle: saline with Tween-80
[5] = dose: 200.0 mg/kg/injection, schedule: Q01DX005 (ip), vehicle: saline with Tween-80
[6] = dose: 50.0 mg/kg/injection, schedule: Q01DX005 (ip), vehicle: Klucel (hydroxypropylcellulose) (HPC)
[7] = dose: 100.0 mg/kg/injection, schedule: Q01DX005 (ip), vehicle: Klucel (hydroxypropylcellulose) (HPC)
[8] = dose: 200.0 mg/kg/injection, schedule: Q01DX005 (ip), vehicle: Klucel (hydroxypropylcellulose) (HPC)
[9] = dose: 50.0 mg/kg/injection, schedule: Q01DX009 (ip), vehicle: saline with Tween-80
[10] = dose: 100.0 mg/kg/injection, schedule: Q01DX009 (ip), vehicle: saline with Tween-80
[11] = dose: 200.0 mg/kg/injection, schedule: Q01DX009 (ip), vehicle: saline with Tween-80
[12] = dose: 60.0 mg/kg/injection, schedule: Q01DX005 (ip), vehicle: saline with Tween-80
[13] = dose: 120.0 mg/kg/injection, schedule: Q01DX005 (ip), vehicle: saline with Tween-80
[14] = dose: 400.0 mg/kg/injection, schedule: Q01DX009 (ip), vehicle: saline with Tween-80
[15] = dose: 25.0 mg/kg/injection, schedule: Q01DX009 (ip), vehicle: saline with Tween-80
[16] = dose: 25.0 mg/kg/injection, schedule: Q01DX009 (ip), vehicle: Klucel (hydroxypropylcellulose) (HPC)
[17] = dose: 50.0 mg/kg/injection, schedule: Q01DX009 (ip), vehicle: Klucel (hydroxypropylcellulose) (HPC)
[18] = dose: 100.0 mg/kg/injection, schedule: Q01DX009 (ip), vehicle: Klucel (hydroxypropylcellulose) (HPC)
[19] = dose: 200.0 mg/kg/injection, schedule: Q01DX009 (ip), vehicle: Klucel (hydroxypropylcellulose) (HPC)

Measured: T/C

O=P(c1ccccc1)(c1ccccc1)c1ccccc1.O=P(c1ccccc1)(c1ccccc1)c1ccccc1.O=P(c1ccccc1)(c1ccccc1)c1ccccc1.O=P(c1ccccc1)(c1ccccc1)c1ccccc1.[Fe+3].[O-][Cl+3]([O-])([O-])O
inactive: [1] 97 % of control | [2] 93 % of control

CC(C)CN(CC(C)C)c1nn[nH]n1
inactive: [3] 103 % of control | [4] 100 % of control | [5] 103 % of control

O=C(O)C1=COC(OC2OC(CO)C(O)C(O)C2O)C2C(CO)=CCC12 (stereo not given)
inactive: dose: 5.0 mg/kg/injection, schedule: Q01DX009 (ip), vehicle: saline with Tween-80 99 % of control and 108 % of control | dose: 10.0 mg/kg/injection, schedule: Q01DX009 (ip), vehicle: saline with Tween-80 108 % of control and 96 % of control | dose: 20.0 mg/kg/injection, schedule: Q01DX009 (ip), vehicle: saline with Tween-80 99 % of control and 104 % of control | dose: 40.0 mg/kg/injection, schedule: Q01DX009 (ip), vehicle: saline with Tween-80 95 % of control | dose: 80.0 mg/kg/injection, schedule: Q01DX009 (ip), vehicle: saline with Tween-80 99 % of control

CN(C)NP(=S)(NN(C)C)Oc1ccccc1
inactive: [3] 117 % of control | [4] 99 % of control

COC1(OC)C(=S)N(C(C)C)C(=S)N1C(C)C
inactive: [6] 100 % of control | [7] 96 % of control | [8] 100 % of control

Cc1c([N+](=O)[O-])ccn1C
inactive: [9] 98 % of control | [10] 105 % of control | [11] 97 % of control

CCOC(=O)CN=Cc1ccccc1
inactive: [12] 107 % of control | [13] 108 % of control | dose: 240.0 mg/kg/injection, schedule: Q01DX005 (ip), vehicle: saline with Tween-80 107 % of control

CCN(CC)c1ccc(NC(C(=O)c2ccccc2)c2ccccc2)cc1 (stereo not given)
inactive: dose: 3.12 mg/kg/injection, schedule: Q01DX005 (ip), vehicle: Klucel (hydroxypropylcellulose) (HPC) 104 % of control and 109 % of control | dose: 6.25 mg/kg/injection, schedule: Q01DX005 (ip), vehicle: Klucel (hydroxypropylcellulose) (HPC) 103 % of control and 109 % of control and 96 % of control | dose: 12.5 mg/kg/injection, schedule: Q01DX005 (ip), vehicle: Klucel (hydroxypropylcellulose) (HPC) 104 % of control and 121 % of control and 96 % of control | dose: 25.0 mg/kg/injection, schedule: Q01DX005 (ip), vehicle: Klucel (hydroxypropylcellulose) (HPC) 112 % of control and 95 % of control

Cc1cc(N2CCOCC2)n2c(nc3ccccc32)c1C#N
inactive: [12] 96 % of control | [13] 100 % of control

Clc1cccc2c(SCCCCCSc3c4ccccc4nc4c(Cl)cccc34)c3ccccc3nc12
inactive: dose: 60.0 mg/kg/injection, schedule: Q01DX005 (ip), vehicle: Klucel (hydroxypropylcellulose) (HPC) 93 % of control | dose: 120.0 mg/kg/injection, schedule: Q01DX005 (ip), vehicle: Klucel (hydroxypropylcellulose) (HPC) 93 % of control | dose: 240.0 mg/kg/injection, schedule: Q01DX005 (ip), vehicle: Klucel (hydroxypropylcellulose) (HPC) 87 % of control

CCO/C(C)=C(/C(C)=O)C(=O)NC1CCCCC1
inactive: [10] 95 % of control | [11] 90 % of control | [14] 90 % of control

O=C1C=C(c2ccccc2)S(=O)(=O)c2cc(O)ccc21
inactive: [3] 119 % of control | [4] 114 % of control | [5] 110 % of control

COc1cc2ccc1NC(=O)N1CCN(CC1)C(=O)Nc1ccc(cc1OC)-c1ccc(c(OC)c1)NC(=O)N1CCN(CC1)C(=O)Nc1ccc-2cc1OC
inactive: [6] 101 % of control | [7] 98 % of control | [8] 102 % of control

CCCC(=O)Nc1nc2ccc([N+](=O)[O-])cc2s1
inactive: dose: 12.5 mg/kg/injection, schedule: Q01DX009 (ip), vehicle: saline with Tween-80 106 % of control | dose: 12.5 mg/kg/injection, schedule: Q01DX009 (ip), vehicle: saline 97 % of control | [15] 97 % of control | dose: 25.0 mg/kg/injection, schedule: Q01DX009 (ip), vehicle: saline 98 % of control | [9] 99 % of control and 123 % of control | dose: 50.0 mg/kg/injection, schedule: Q01DX009 (ip), vehicle: saline 98 % of control | [10] 110 % of control and 96 % of control | dose: 100.0 mg/kg/injection, schedule: Q01DX009 (ip), vehicle: saline 101 % of control | [11] 108 % of control

CN=C(N)N/N=C/c1c2ccccc2c(C)c2ccccc12
inactive: dose: 25.0 mg/kg/injection, schedule: Q04DX002 (ip), vehicle: saline 119 % of control | dose: 50.0 mg/kg/injection, schedule: Q04DX002 (ip), vehicle: saline 115 % of control

CC(C)=NOc1ccc([N+](=O)[O-])cc1[N+](=O)[O-]
inactive: [9] 96 % of control | [10] 108 % of control

CCCCCCCCCCCCCCCCCC(=O)NN
inactive: [1] 94 % of control | [2] 87 % of control

O=C(NN1C(=O)CS(=O)(=O)C1c1ccccc1F)c1ccncc1 (stereo not given)
inactive: dose: 6.25 mg/kg/injection, schedule: Q01DX005 (ip), vehicle: saline with Tween-80 102 % of control | dose: 12.5 mg/kg/injection, schedule: Q01DX005 (ip), vehicle: saline with Tween-80 98 % of control | dose: 25.0 mg/kg/injection, schedule: Q01DX005 (ip), vehicle: saline with Tween-80 99 % of control | [3] 97 % of control | [4] 90 % of control | [5] 97 % of control

O=[N+]([O-])c1ccc(/C=N/N2CCNC2=S)o1
inactive: [16] 100 % of control | [17] 101 % of control | [18] 100 % of control | [19] 100 % of control

O=C(CN1C(=O)c2ccccc2C1=O)NC(Cc1ccccc1)C(=O)O (stereo not given)
inactive: [9] 95 % of control | [10] 105 % of control | [11] 102 % of control | [14] 95 % of control

CCOC(=O)N1CCN(C(=S)NNC(C)c2cccc[n+]2[O-])CC1 (stereo not given)
inactive: [3] 99 % of control | [4] 100 % of control

Cc1nnc(Cl)c(C#N)c1C
inactive: [6] 104 % of control | [7] 92 % of control | [8] 95 % of control

O=C1c2c(c(Cl)c3ccccc3c2O)C(=O)C2C3C=CC(C3)C12 (stereo not given)
inactive: [3] 96 % of control | [4] 89 % of control | [5] 89 % of control

Cc1ccc(S(=O)(=O)OC(=C(F)F)[Si](C)(C)C)cc1
inactive: [9] 102 % of control | [10] 94 % of control

CCOc1n[n+]([O-])c(Cl)cc1[N+](=O)[O-]
inactive: [15] 103 % of control | [9] 102 % of control | [10] 100 % of control

CC1CCC(C(C)C)C(NC(=O)c2ccncc2)C1 (stereo not given)
inactive: [6] 100 % of control | [7] 101 % of control | [8] 105 % of control

S=C1NC2(CCCCC2)NC12CCCCC2
inactive: [17] 86 % of control | [18] 93 % of control | [19] 98 % of control | dose: 400.0 mg/kg/injection, schedule: Q01DX009 (ip), vehicle: Klucel (hydroxypropylcellulose) (HPC) 93 % of control

COc1ccc(C(c2cc(C(C)(C)C)cc(C(C)(C)C)c2O)N2CCOCC2)cc1 (stereo not given)
inactive: dose: 50.0 mg/kg/injection, schedule: Q01DX005 (ip), vehicle: distilled water + alcohol 99 % of control | dose: 100.0 mg/kg/injection, schedule: Q01DX005 (ip), vehicle: distilled water + alcohol 103 % of control | dose: 200.0 mg/kg/injection, schedule: Q01DX005 (ip), vehicle: distilled water + alcohol 99 % of control

Cc1nn(-c2ccccc2)c(=O)n2nnnc12
inactive: dose: 100.0 mg/kg/injection, schedule: Q01DX001 (ip), vehicle: saline with Tween-80 96 % of control | dose: 200.0 mg/kg/injection, schedule: Q01DX001 (ip), vehicle: saline with Tween-80 94 % of control | dose: 400.0 mg/kg/injection, schedule: Q01DX001 (ip), vehicle: saline with Tween-80 96 % of control

Nc1cc2c(cn1)[nH]c1ccccc12
inactive: dose: 12.5 mg/kg/injection, schedule: Q01DX009 (ip), vehicle: other 108 % of control | dose: 25.0 mg/kg/injection, schedule: Q01DX009 (ip), vehicle: other 101 % of control | dose: 50.0 mg/kg/injection, schedule: Q01DX009 (ip), vehicle: other 108 % of control | [12] 97 % of control | dose: 100.0 mg/kg/injection, schedule: Q01DX009 (ip), vehicle: other 106 % of control | [13] 106 % of control

CN(C)N=Nc1cccc(C(N)=O)c1
inactive: dose: 6.25 mg/kg/injection, schedule: Q01DX009 (ip), vehicle: Klucel (hydroxypropylcellulose) (HPC) 100 % of control | dose: 12.5 mg/kg/injection, schedule: Q01DX009 (ip), vehicle: Klucel (hydroxypropylcellulose) (HPC) 110 % of control | [16] 116 % of control | [17] 112 % of control | [18] 93 % of control
